test system: breast cancer cell lines BT20, MDA-MB-231 and SUM-i 159; assay: Drug response: breast cancer cell line proliferation inhibition; type: cell-based; conditions: same dose as in the triple-drug combinations, BT20, MDA-MB-231, SUM-i 159, FIG. 9
Description: The breast cancer cell lines BT20, MDA-MB-231 and SUM-i 159 were treated with HDAC inhibitor (MS275), ISP inhibitor (17-AAG), mTOR inhibitor (Niclosamide), polo-like kinase inhibitor (1312536) and histone demethylase inhibitor (GSK-J4).

| SMILES | inhibition of breast cancer cell line proliferation, single treatment |
| --- | --- |
| CC[C@@H]1C(=O)N(C)c2cnc(Nc3ccc(C(=O)NC4CCN(C)CC4)cc3OC)nc2N1C1CCCC1 [compound 1312536] | ineffective |
| Nc1ccccc1NC(=O)c1ccc(CNC(=O)OCc2cccnc2)cc1 [MS275, Entinostat] | ineffective |
| O=C(Nc1ccc([N+](=O)[O-])cc1Cl)c1cc(Cl)ccc1O [Niclosamide] | ineffective |
| CCOC(=O)CCNc1cc(N2CCc3ccccc3CC2)nc(-c2ccccn2)n1 [GSK-J4] | ineffective |

From patent US20250305055A1, “PROGNOSTIC/PREDICTIVE BREAST CANCER SIGNATURE” (priority 2021, published 2025)
